Data published in patent US5972625A, “Assays for inhibitors of leukocyte adhesion” (The Regents of the University of California, priority 1997, dated 1999).
Blank lines part the entries; values can stand above or below the molecule they belong to.

Experiments:
[1] = target: L-selectin; assay: Inhibition of L-selectin binding to GlyCAM-1 (ELISA with L-selectin-IgG chimera); conditions: for Interaction of L-selectin with GlyCAM-1: FIG. 6, result in words
Experimental: (§1) The CAMO2 antibody is diluted to a concentration of 1.6 μg/ml in PBS with 0.1% NaN3, and 100 μl of this solution is dispensed into each well of a 96-well plate. The plate is incubated overnight at 4° C. to allow adsorption of the antibody onto the solid support. The plate is then washed three times with PBS containing 0.1% tween, and blocked with 200 μl/well of a 3% solution of BSA in PBS for 2 hours at room temperature.
(§2) A crude GlyCAM-1 preparation is produced by extracting mouse serum with chloroform/methanol solution, followed by dialysis against PBS. After removing the blocking solution, 100 μl of this solution is dispensed into each well, and the plate is incubated for 1 hour at room temperature.
Chimeric molecules of the invention and more specifically, complexes of L-selectin with a secondary antibody and streptavidin-alkaline phosphates are formed as follows:
2 mg/ml L-selectin-IgG chimera
(§3) 2/1000 dilution of biotinylated goat anti-human Fc F(ab')2 (Caltag)
(§4) 2/1000 dilution of streptavidin-alkaline phosphatase (Caltag)
In PBS with 2% BSA and 5% normal rabbit serum
In a separate 96-well plate, 80 μl of serial dilutions of the test inhibitors dissolved in PBS are dispensed into each well. To each inhibitor-containing well is added 80 μl of the selectin-IgG/antibody/streptavidin-alkaline phosphatase complex solution. The plate is then incubated for 30 minutes at 4° C.
The plate containing CAMO2 antibody and captured GlyCAM-1 is washed three times with PBS/0.1% TWEEN detergent, and […] of each selectin complex/inhibitor mixture is transferred to the wells of the GlyCAM-containing plate. This plate is then incubated for 30 minutes at room temperature.
Finally, the solutions are removed from the GlyCAM-1 plate and the plate is washed three times with PBS/0.1% TWEEN detergent. […] of alkaline phosphatase substrate solution (p-nitrophenyl phosphate in ethanolamine/MgCl2) buffer is added to each well to detect the presence of bound selectin complex and the plate is quantified with a 96-well plate reader at 405 nm.

[2] = target: P-selectin; assay: Inhibition of P-selectin binding to GlyCAM-1 (ELISA with P-selectin-IgG chimera)
Experimental: as §1, §2
Chimeric molecules of the invention and more specifically, complexes of P-selection with a secondary antibody and streptavidin-alkaline phosphates are formed as follows:
4 μg/ml P-selectin-IgG chimera
as §3, §4
(§5) In PBS with 0.2% BSA and 5% normal rabbit serum
(§6) Assays as per Example 1-3 were used to determine IC50 's for the inhibition of L-, P- or E-selectin binding to GlyCAM-1 for a number of compounds.

[3] = target: E-selectin; assay: Inhibition of E-selectin binding to GlyCAM-1 (ELISA with E-selectin-IgG chimera)
Experimental: as §1, §2
Chimeric molecules of the invention and more specifically, complexes of E-selection with a secondary antibody and streptavidin-alkaline phosphates are formed as follows:
4 μg/ml E-selectin-IgG chimera
as §3, §4, §5, §6

[4] = target: T1, L-selectin (Homo sapiens, UniProt P14151); conditions: without sulfate; cited from earlier work
T1 sequence (P14151 39-372): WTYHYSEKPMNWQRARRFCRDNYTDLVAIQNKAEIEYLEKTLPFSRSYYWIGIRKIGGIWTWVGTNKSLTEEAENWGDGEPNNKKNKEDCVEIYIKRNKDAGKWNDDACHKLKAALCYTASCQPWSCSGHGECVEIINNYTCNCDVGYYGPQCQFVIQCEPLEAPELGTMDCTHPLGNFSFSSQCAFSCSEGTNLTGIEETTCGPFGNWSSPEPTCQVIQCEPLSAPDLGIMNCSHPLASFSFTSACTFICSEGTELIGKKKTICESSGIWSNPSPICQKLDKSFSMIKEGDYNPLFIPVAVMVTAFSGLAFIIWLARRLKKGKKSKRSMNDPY

[5] = tested on: lymphocyte attachment to HEV; conditions: literature; cited from earlier work
[6] = tested on: L-selectin, P-selectin and E-selectin; assay: Binding of serum GlyCAM-1 to each of the different selectins; conditions: Ig chimeras of the three selectins
Excerpt: (See FIG. 5). […] These specific conditions are described in detail in Examples 1-3.

Molecule: O=C(O)CN(CCN(CC(=O)O)CC(=O)O)CC(=O)O [EDTA]
- Interaction of L-selectin with GlyCAM-1 [1]: inhibited

Molecule: sialyl Lewis^x oligosaccharide [sLe^x]
- Affinity for L-selectin [4]: very low affinity

Molecule: O=P(O)(O)OC[C@H]1OC(O)[C@@H](O)[C@@H](O)[C@@H]1O (stereo partly drawn) [mannose-6-phosphate]
- Interaction of L-selectin with GlyCAM-1 [1]: inhibited
- IC50 ([1]; L-selectin): 1500 µM
- Lymphocyte attachment to HEV [5]: prevent lymphocyte attachment to HEV

Molecule: fucoidan
- Interaction of L-selectin with GlyCAM-1 [1]: inhibited
- IC50 for the inhibition of L-selectin binding to GlyCAM-1 ([1]; L-selectin): 0.2 µg/mL
- IC50 for the inhibition of P-selectin binding to GlyCAM-1 [2]: 0.02 µg/mL
- Lymphocyte attachment to HEV [5]: active

B1: GlyCAM-1: a sulfated, fucosylated and sialylated glycoprotein of about 50 kd now termed GlyCAM-1 (protein, UniProt Q02596 20-151, looked up)
Glycosylation-dependent cell …: LPGSKDELQMKTQPTDAIPAAQSTPTSYTSEESTSSKDLSKEPSIFREELISKDNVVIESTKPENQEAQDGLRSGSSQLEETTRPTTSAATTSEENLTKSSQTVEEELGKIIEGFVTGAEDIISGASRITKS
- Binding of serum GlyCAM-1 to the selectins [6]: will bind to each of the different selectins

Results, then the molecule that gave them:

- IC50 ([1]; L-selectin): 200 µM
Molecule: O=S(=O)(O)OC[C@H]1O[C@@H](O[C@H]2[C@H](O)[C@@H](O)C(O)O[C@@H]2CO)[C@H](O)[C@@H](OS(=O)(=O)O)[C@H]1OS(=O)(=O)O (stereo partly drawn) [3',4',6'-trisulfo lactose]

- IC50 ([1]; L-selectin): 3000 µM
- IC50 [2]: 3000 µM
- IC50 [3]: 4000 µM
Molecule: CC(=O)N[C@H]1C(O)O[C@H](CO)[C@@H](O[C@@H]2O[C@H](CO)[C@H](O)[C@H](OS(=O)(=O)O)[C@H]2O)[C@@H]1O[C@@H]1O[C@@H](C)[C@@H](O)[C@@H](O)[C@@H]1O (stereo partly drawn) [3'-sulfo Lewis x]

- IC50 ([1]; L-selectin): 400 µM
Molecule: O=S(=O)(O)OC[C@H]1O[C@@H](O[C@H]2[C@H](O)[C@@H](O)C(O)O[C@@H]2CO)[C@H](O)[C@@H](OS(=O)(=O)O)[C@H]1O (stereo partly drawn) [3',6'-disulfo lactose]

- IC50 ([1]; L-selectin): 1700 µM
- IC50 [2]: 140 µM
- IC50 [3]: 4000 µM
Molecule: 3'-sulfo Lewis a

- IC50 ([1]; L-selectin): 10000 µM
Molecule: O=S(=O)(O)OC[C@H]1O[C@@H](O[C@H]2[C@H](O)[C@@H](O)C(O)O[C@@H]2CO)[C@H](O)[C@@H](O)[C@H]1O (stereo partly drawn) [6'-sulfo lactose]

- IC50 ([1]; L-selectin): 2 µM
- IC50 [2]: 0.2 µM
Molecule: O=P(O)(O)O[C@H]1[C@H](OP(=O)(O)O)[C@@H](OP(=O)(O)O)[C@H](OP(=O)(O)O)[C@@H](OP(=O)(O)O)[C@H]1OP(=O)(O)O [phytic acid]
